From patent US20180291378A1, “METHODS AND COMPOSITIONS FOR PROMOTING HAIR GROWTH” (THE TRUSTEES OF COLUMBIA UNIVERSITY IN THE CITY OF NEW YORK, priority 2015, published 2018)

Columns and labels:
STAT3 and STAT5 = STAT3 and STAT5 activation in whole skin treated in vivo; set-up: species or system mouse
[1] = tested on: human DP spheres gene expression; test: DP spheres microarray / GEDI / gene set enrichment analysis; assay type: cell-based
Procedure: For the DP spheres microarray analysis, cells were prepared from three different donors, and Affymetrix human HG-U133 PLUS 2.0 arrays were hybridized at the CUMC genomics facility. Quality control and data normalization was performed as described above. For the organ culture experiment, 3 sets of repeats were performed, each times using HF derived from a single individual.
For the DP spheres microarray analysis, total RNA was extracted from DP spheres cultured in DMSO, ruxolitinib or tofacitinib from each of the three donors using the Qiagen RNAeasy micro kit. The Ovation RNA Amplification kit (Nugen) was used to generate amplified cDNA for microarray analysis. LIMMA was used with a linear model treating both treatment and the blocking factor, donor, as fixed effects. Contrasts of interest between treatments were used to identify genes that were differentially expressed between pairs of treatments for the treatments DMSO, RUXO, and TOFA. A threshold of absolute fold change=1.5 and P<0.05 was employed. For GSEA, the HG_U133_Plus_2.0 chip annotation file downloaded from ftp.broad.mit.edullpub/gsedannotations/was used to annotate the Affymetrix ProbeSets and to remove duplicate ProbeSets for a given Gene Symbol. Duplicates were removed based on the maximum absolute fold-change observed for each Gene Symbol. Pre-ranked gene lists were generated for each treatment contrast of interest, using the moderated t-statistics returned by LIMMA. GSEA was performed on these lists to identify KEGG pathways overrepresented in each list (ES p-value 0.01).
The gene set enrichment analysis comparing tofacitinib-treated and control cells was performed by generating a list of all detected transcripts ranked by differential expression (p-value), and direction of fold change (up or down). This ranked list was tested for enrichment of the union of territories 2 and 4 (gene list provided in Table 3) as described previously (35). A null distribution for computing the normalized enrichment score (NES) and its associated p-value was obtained by label shuffling to randomize the gene rankings. These randomized sets were then used to compute null enrichment scores over 5000 iterations to generate a null distribution. The observed leading edge enrichment score was normalized to this distribution and a 2-tailed p-value was generated for this NES.

mouse keratinocytes = test: Colony forming assay with mouse keratinocytes harvested at telogen; assay type: cell-based
[2] = tested on: hair germ compartment (P-cad+); test: Hair germ proliferation (Ki67 / EdU) in treated mouse skin; assay type: in vivo
Procedure: C57/B6 mice at 8.5 weeks of age were treated on half of the dorsal back with either topical vehicle control (left side) or JAK inhibitors (right side). Four hours post treatment each mouse received a single injection of 20 mg/kg 5-ethynyl-2′-deoxyuridine (EdU) (Invitrogen). One hour after injection, skin was harvested, fixed and stained using the Click-iT EdU Alexa Fluor 488 Imaging Kit (Life Technologies) per manufacturer's instructions, and co-stained for P-cadherin. Experiment was replicated once, with 1 mouse/time point.

[3] = tested on: whole skin gene expression; test: Whole skin microarray / IPA pathway analysis after 4 days of treatment; assay type: in vivo, mouse; conditions: 8.5-week-old mice
Procedure: Gene expression profiling was performed on whole skin biopsies from 12 B6/C57 female mice, 8.5 weeks of age. Biopsies were taken from dorsal skin at day 0 (T0) of the experiment. […] Quality control was performed using the affy analysisQC package from http://arrayanalysis.org/. […] Data were normalized using the GCRMA method as implemented in affyAnalysisQC. LIMMA was used with a multilevel model to identify genes that were differentially expressed between samples at T5 and T0 for each treatment group (DMSO, RUXO, and TOFA) using a threshold of fold change=1.5 and P<0.05.
Total RNA was extracted using the Qiagen RNAeasy micro kit. The Ovation RNA Amplification kit (Nugen) was used to generate amplified cDNA for microarray analysis. Arrays used were Affymetrix mouse 430 2.0, hybridized at the CUMC microarray facility. qPCR analysis was performed on the ABI 7300 cycler. Primers sequences available in Table 2.

OSM-Rβ [4] = test: OSM-Rβ expression in mouse skin treated in vivo during telogen; conditions: whole skin biopsies daily over 5 days of treatment
[5] = tested on: human adult scalp hair follicles; test: Human hair follicle organ culture assay; assay type: cell-based
Procedure: Adult human follicles were microdissected from occipital skin under sterile conditions as previously described.
Media was replaced every 2 days, and images of individual follicles were taken every 2 days. Analysis of the growth rate of each follicle was performed using Image J.

human DP spheres = test: Patch assay with dermal papilla spheres; assay type: in vivo; conditions: DP spheres treated at 400 nM
Procedure: DP cells were grown in spheres as previously described (35). […] Each hanging drop contained 1000 cells, which aggregated to form DP spheroids after 24 hours. 48 hours after plating, 500 spheres in each condition were collected for use in the patch assay. Each experiment was performed with cells derived from a single individual, and four separate experiments were conducted. Keratinocytes were isolated from new born mice following the protocol outlined by Lichti et al (63). Cells were cultured in dkSFM for 2-4 days prior to being harvested for the patch assay. 1×10^6 newborn murine keratinocytes were then mixed together with 500 human DP spheres in each condition, and injected subdermally into dorsal skin of a nude mouse. 12 days after performing the injections, cysts had developed in the dermis, some which contained HF and hair fibers. These cysts were collected, photographed and then digested in 0.35% collagenase. The digested slurries were spread onto microscope slides and hair fiber counts were manually performed under a stereo microscope.

C57/B6 mice in telogen = test: Anagen induction by topical treatment of shaved wildtype mice in telogen; assay type: in vivo, mouse; conditions: for days of treatment until treated follicles re-initiate anagen: 7 week old mice, treated for 24 days; for mice displaying skin darkening and hair growth within 10 days of starting treatment: 8.5 week old mice treated for 5 days
Text: It was hypothesized that inhibition of JAK-STAT signaling promotes entry into the hair cycle in mice. To determine the onset of anagen, backskin hairs were trimmed with an electric shaver, and entry of HF into anagen was observed by the appearance of darkening skin and by hair regrowth. For the hair cycle experiments described in FIG. 1A, biopsies were taken from 2 mice/time point, and the experiment was replicated on 3 sets of littermates. For the experiments described in supp. FIGS. 1C&D, 3-4 mice were used per group (7 week vs. 8.5 week), and the experiment was replicated 3 times. […] The experiment presented in FIG. 1E was independently replicated once, with 3 mice/condition. The experiments described in FIG. 2A, 3 mice/genotype were utilized, and the experiment was replicated in 2 sets of littermates.
Ruxolitinib (INCB018424) was purchased from ChemieTek (catalog number CT-INCB). […] Hedgehog agonist (SAG) was purchased from EMD Millipore (catalog number 566660). JAK-STAT inhibitors were dissolved in DMSO and used at 2-3% for in vivo experiments, as indicated, and 400 nM for in vitro experiments. SAG was used at 120 uM, as described in Paladini et al (2).

[6] = tested on: human fetal scalp skin grafts; test: Human skin grafting assay on SCID mice; assay type: in vivo; conditions: daily topical application, 4 weeks
Procedure: The mice were bandaged, and the grafts were left to recover for 6 weeks. […] Grafts were treated daily with topical application of vehicle control, ruxolitinib or tofacitinib. Treatment continued for 4 weeks, and pictures were taken every 3-5 days. Experiments were performed with skin from 3 separate donors. Quantification of hair growth was performed using ImageJ. Taking advantage of the fact that the donor hair was dark and the grafted mouse was white, the intensity of pigmentation was measured as a proxy for density of HF. Since control and experimental treatments were performed on the same graft, each image allows for the direct comparison between vehicle- and drug-treated skin. Darker regions are given a lower value than bright regions. Ratio was calculated by averaging the intensity values for the control treated side, by the intensity values for drug-treated side, accounting for pre-treatment differences in hair growth on the graft and for changes in hair density occurring over time.

STAT1, STAT3 and STAT5 = test: OSM-induced STAT activation in cultured keratinocytes; assay type: cell-based, mouse
OSM-Rβ [7] = test: OSM-Rβ expression in cultured mouse keratinocytes; assay type: cell-based; conditions: recombinant mouse OSM at 20 ng/ml

**Q.** With C[C@@H]1CCN(C(=O)CC#N)C[C@@H]1N(C)c1ncnc2[nH]ccc12 [tofacitinib] as the molecule, how does the “STAT3 and STAT5 activation” value (STAT3 and STAT5) read?
**A.** Its value is “effective inhibition”.

**Q.** And the “expression of LEF1, WIF1 and CD133” value [1]?
**A.** Its value is “upregulate”.

**Q.** And the “expression of TGβ2, BMP6 and LEF1” value [1]?
**A.** The value was “upregulated”.

**Q.** What about the “gene set enrichment of territory T4” value ([1]; treated vs untreated spheres) of the same molecule?
**A.** Its value is “significantly enriched”.

**Q.** What about the “gene set enrichment of territory T2” value ([1]; treated vs untreated spheres, overlap only marginally significant) of the same molecule?
**A.** The value was “enriched”.

**Q.** What about the “expression of FGFR1, ACVRL1, IGFR1, OSMR and PTGFR (region 1)” value ([1]; vs control) of the same molecule?
**A.** Its value is “repressed in both treatments but lower in tofacitinib treatment”.

**Q.** And the “expression of members of the TGFβ pathway and the BMP pathway (regions 3 and 4)” value ([1]; vs control)?
**A.** The value was “upregulated”.

**Q.** What about the “expression of pro-apoptotic genes BAX, BCL2L11 and CASP12 (region 2)” value ([1]; vs control) of the same molecule?
**A.** The value was “downregulated”.

**Q.** What about the “key regulators of the WNT pathway (LEF1) and members of the NOTCH pathway” value ([1]; vs control) of the same molecule?
**A.** Its value is “overrepresented”.

**Q.** And the “effect on OSM growth inhibition” value (mouse keratinocytes; added to OSM)?
**A.** Its value is “reversed partially”.

**Q.** And the “number of keratinocyte colonies” value (mouse keratinocytes; drug alone)?
**A.** The value was “increase the number of keratinocyte colonies”.

**Q.** And the “Edu+ cells within the hair germ (P-cadherin+) compartment” value ([2]; after three treatments, skin harvested 5 hours after treatment)?
**A.** Its value is “clearly visible”.

**Q.** What about the “proliferation within the hair germ compartment (P-cad+)” value ([2]; mice in telogen treated 4 days) of the same molecule?
**A.** Its value is “Significant proliferation”.

**Q.** And the “expression of hair cycle regulators Shh and Prom1” value ([3]; T5 vs T0)?
**A.** The value was “significantly upregulated”.

**Q.** What about the “pathways enriched by only one of the drug treatments” value ([3]; T5 vs T0) of the same molecule?
**A.** Its value is “pathways involved in cell motility and migration, such as Rho and integrin signaling”.

**Q.** What about the “pathways enriched in both drug treatments (IPA)” value ([3]; T5 vs T0, not in vehicle) of the same molecule?
**A.** Its value is “melanogenesis and the Wnt pathway were enriched”.

**Q.** What about the “OSM-Rβ expression, qRT-PCR” value (OSM-Rβ [4]) of the same molecule?
**A.** Its value is “Downregulation”.

**Q.** And the “length of hair shafts / rate of hair elongation” value ([5]; 400 nM, follicles from a single donor)?
**A.** Its value is “significantly increased length of hair shafts”.

**Q.** What about the “growth rate of anagen, repeat experiment” value ([5]; follicles from two individuals, did not reach statistical significance) of the same molecule?
**A.** Its value is “increased the growth rate of anagen”.

**Q.** And the “inductivity of DP spheres” value (human DP spheres)?
**A.** The value was “did enhance inductivity”.

**Q.** What about the “size and numbers of HFs induced” value (human DP spheres; with neonatal mouse keratinocytes in nude mice) of the same molecule?
**A.** Its value is “larger and significantly greater numbers of HFs”.

**Q.** What about the “days of treatment until treated follicles re-initiate anagen” value (C57/B6 mice in telogen) of the same molecule?
**A.** The value was at most 21 days.

**Q.** And the “mice displaying skin darkening and hair growth within 10 days of starting treatment” value (C57/B6 mice in telogen)?
**A.** The value was about 90%.

**Q.** And the “re-entry into the hair cycle” value (C57/B6 mice in telogen; topical, half of dorsal back, treated three weeks)?
**A.** The value was “rapid re-entry into the hair cycle, with kinetics similar to the Shh agonist”.

**Q.** And the “HF growth on graft compared to controls” value [6]?
**A.** Its value is “denser HF growth”.

**Q.** What about the “effect on OSM-induced STAT1, STAT3 and STAT5 activation” value (STAT1, STAT3 and STAT5; in vitro cultured keratinocytes) of the same molecule?
**A.** The value was “efficiently abrogated”.

**Q.** Which results are given for N#CC[C@H](C1CCCC1)n1cc(-c2ncnc3[nH]ccc23)cn1 [ruxolitinib]?
**A.** days of treatment until treated follicles re-initiate anagen (C57/B6 mice in telogen): ≤ 18 days; mice displaying skin darkening and hair growth within 10 days of starting treatment (C57/B6 mice in telogen): ~90%

B1: OSM: oncostatin M, secreted cytokine of the IL-6 family; recombinant mouse OSM used at 20 ng/ml (protein, UniProt P53347 25-206, looked up)
Oncostatin-M: NRGCSNSSSQLLSQLQNQANLTGNTESLLEPYIRLQNLNTPDLRAACTQHSVAFPSEDTLRQLSKPHFLSTVYTTLDRVLYQLDALRQKFLKTPAFPKLDSARHNILGIRNNVFCMARLLNHSLEIPEPTQTDSGASRSTTTPDVFNTKIGSCGFLWGYHRFMGSVGRVFREWDDGSTRSRR
**Q.** How did the “effect on keratinocyte colony growth” value (mouse keratinocytes; OSM alone) turn out when B1 was run?
**A.** The value was “growth inhibitory effect”.

**Q.** And the “expression of OSM-Rβ” value (OSM-Rβ [7])?
**A.** The value was “upregulated”.

**Q.** And the “activation of STAT1, STAT3 and STAT5 transcription factors” value (STAT1, STAT3 and STAT5; within 10 minutes of OSM treatment)?
**A.** Its value is “activated”.
